# Test results from ChEMBL document CHEMBL1914451, “The cephalostatins. 21. Synthesis of bis-steroidal pyrazine rhamnosides (1)” (2011).
# The source made the active and inactive calls. The rule behind the calls is not given here.
# Legend:
# [1] = test system: P388; test: Antiproliferative activity against mouse P388 cells; type: functional; details: read-out: ED50 (the source's name)
# [2] = test system: BXPC-3; test: Growth inhibition of human BxPC3 cells; type: functional
# [3] = test system: MCF7; test: Growth inhibition of human MCF7 cells; type: functional
# [4] = test system: SF-268; test: Growth inhibition of human SF268 cells; type: functional
# [5] = test system: NCI-H460; test: Growth inhibition of human NCI-H460 cells; type: functional
# [6] = test system: KM-20L2; test: Growth inhibition of human KM20L2 cells; type: functional
# [7] = test system: DU-145; test: Growth inhibition of human DU145 cells; type: functional
# [8] = test system: Candida albicans; test: Antifungal activity against Candida albicans ATCC 90028 at 64 ug/ml by broth microdilution assay; type: functional, organism-based
# [9] = test system: Stenotrophomonas maltophilia; test: Antibacterial activity against Stenotrophomonas maltophilia ATCC 13637 at 64 ug/ml by broth microdilution assay; type: functional, organism-based
# [10] = test system: Micrococcus luteus; test: Antibacterial activity against Micrococcus luteus Presque Isle 456 at 64 ug/ml by broth microdilution assay; type: functional, organism-based
# [11] = test system: Staphylococcus aureus; test: Antibacterial activity against Staphylococcus aureus ATCC 29213 at 64 ug/ml by broth microdilution assay; type: functional, organism-based
# [12] = test system: Escherichia coli; test: Antibacterial activity against Escherichia coli ATCC 25922 at 64 ug/ml by broth microdilution assay; type: functional, organism-based
# [13] = test system: Enterobacter cloacae; test: Antibacterial activity against Enterobacter cloacae ATCC 13047 at 64 ug/ml by broth microdilution assay; type: functional, organism-based
# [14] = test system: Enterococcus faecalis; test: Antibacterial activity against Enterococcus faecalis ATCC 29212 at 64 ug/ml by broth microdilution assay; type: functional, organism-based
# [15] = test system: Streptococcus pneumoniae; test: Antibacterial activity against Streptococcus pneumoniae ATCC 6303 at 64 ug/ml by broth microdilution assay; type: functional, organism-based
# [16] = test system: Neisseria gonorrhoeae; test: Antibacterial activity against Neisseria gonorrhoeae ATCC 49226 at 64 ug/ml by broth microdilution assay; type: functional, organism-based
# [17] = test system: Cryptococcus neoformans; test: Antifungal activity against Cryptococcus neoformans ATCC 90112 at 64 ug/ml by broth microdilution assay; type: functional, organism-based
# [18] = test system: Enterococcus faecalis; test: Antibacterial activity against Enterococcus faecalis ATCC 29212 by broth microdilution assay; type: functional
smiles,measurement,setting,value
CC(=O)OC/C=C1\CC[C@H]2[C@@H]3CC[C@H]4CC(=O)CC[C@]4(C)[C@H]3[C@@H](O)C[C@]12C,EC50,[1],16.6 µg/mL
CC(=O)O[C@@H]1[C@@H](OC(C)=O)[C@H](C)O[C@@H](OC/C=C2\CC[C@H]3[C@@H]4CC[C@H]5Cc6nc7c(nc6C[C@]5(C)[C@H]4[C@@H](O)C[C@]23C)C[C@@H]2CC[C@@H]3[C@H]([C@@H](O)C[C@]4(C)/C(=C/CO[C@@H]5O[C@@H](C)[C@H](OC(C)=O)[C@@H](OC(C)=O)[C@H]5OC(C)=O)CC[C@@H]34)[C@@]2(C)C7)[C@@H]1OC(C)=O,EC50,[1],> 10 µg/mL
CC(=O)OC/C=C1\CC[C@H]2[C@@H]3CC[C@H]4CC(=O)[C@H](Br)C[C@]4(C)[C@H]3[C@@H](O)C[C@]12C,EC50,[1],6.6 µg/mL
CC(=O)OC/C=C1\CC[C@H]2[C@@H]3CCC4=CC(=O)CC[C@]4(C)[C@H]3[C@@H](O)C[C@]12C,EC50,[1],> 100 µg/mL
C[C@]12Cc3nc4c(nc3C[C@@H]1CC[C@@H]1[C@@H]2[C@@H](O)C[C@]2(C)/C(=C/CO)CC[C@@H]12)C[C@@]1(C)[C@@H](CC[C@@H]2[C@@H]1[C@@H](O)C[C@]1(C)/C(=C/CO)CC[C@@H]21)C4,EC50,[1],1.5 µg/mL
same,GI50,[2],1.3 µg/mL
same,GI50,[3],1.3 µg/mL
same,GI50,[4],1.7 µg/mL
same,GI50,[5],2.2 µg/mL
same,GI50,[6],1.7 µg/mL
same,GI50,[7],1.8 µg/mL
same,Activity,[8],inactive
same,Activity,[9],inactive
same,Activity,[10],inactive
same,Activity,[11],inactive
same,Activity,[12],inactive
same,Activity,[13],inactive
same,Activity,[14],inactive
same,Activity,[15],inactive
same,Activity,[16],inactive
same,Activity,[17],inactive
C=C[C@]1(C)CCC2=C1C[C@H](O)[C@H]1[C@H]2CC[C@H]2Cc3nc4c(nc3C[C@@]21C)C[C@@H]1CC[C@H]2C3=C(C[C@H](O)[C@@H]2[C@@]1(C)C4)[C@](C)(C=C)CC3,EC50,[1],> 10 µg/mL
CC(=O)O[C@@H]1[C@@H](OC(C)=O)[C@H](C)O[C@@H](OC/C=C2\CC[C@H]3[C@@H]4CCC5=CC(=O)CC[C@]5(C)[C@H]4[C@@H](O)C[C@]23C)[C@@H]1OC(C)=O,EC50,[1],> 10 µg/mL
CC(=O)O[C@@H]1[C@@H](OC(C)=O)[C@H](C)O[C@@H](OC/C=C2\CC[C@H]3[C@@H]4CC[C@H]5Cc6nc7c(nc6C[C@]5(C)[C@H]4[C@@H](O)C[C@]23C)C[C@@H]2CC[C@@H]3[C@H]([C@@H](O)C[C@]4(C)/C(=C/CO[C@H]5O[C@@H](C)[C@H](OC(C)=O)[C@@H](OC(C)=O)[C@H]5OC(C)=O)CC[C@@H]34)[C@@]2(C)C7)[C@@H]1OC(C)=O,EC50,[1],> 10 µg/mL
CC(=O)OC/C=C1\CC[C@H]2[C@@H]3CC[C@H]4Cc5nc6c(nc5C[C@]4(C)[C@H]3[C@@H](O)C[C@]12C)C[C@@H]1CC[C@@H]2[C@H]([C@@H](O)C[C@]3(C)/C(=C/COC(C)=O)CC[C@@H]23)[C@@]1(C)C6,EC50,[1],77.2 µg/mL
same,MIC,[18],32 µg/mL
C[C@@H]1O[C@H]2OC(C)(OC/C=C3\CC[C@H]4[C@@H]5CC[C@H]6Cc7nc8c(nc7C[C@]6(C)[C@H]5[C@@H](O)C[C@]34C)C[C@@H]3CC[C@@H]4[C@H]([C@@H](O)C[C@]5(C)/C(=C/COC6(C)O[C@@H]7O[C@@H](C)[C@H](O)[C@@H](O)[C@H]7O6)CC[C@@H]45)[C@@]3(C)C8)O[C@@H]2[C@H](O)[C@H]1O (stereo partly specified),EC50,[1],> 10 µg/mL
same,GI50,[2],2.1 µg/mL
same,GI50,[3],2.8 µg/mL
same,GI50,[4],3 µg/mL
same,GI50,[5],3.8 µg/mL
same,GI50,[6],3.3 µg/mL
same,GI50,[7],3 µg/mL
same,Activity,[8],inactive
same,Activity,[9],inactive
same,Activity,[10],inactive
same,Activity,[11],inactive
same,Activity,[12],inactive
same,Activity,[13],inactive
same,Activity,[14],inactive
same,Activity,[15],inactive
same,Activity,[16],inactive
same,Activity,[17],inactive
CC(=O)O[C@@H]1[C@@H](OC(C)=O)[C@H](C)O[C@H](OC/C=C2\CC[C@H]3[C@@H]4CC[C@H]5Cc6nc7c(nc6C[C@]5(C)[C@H]4[C@@H](O)C[C@]23C)C[C@@H]2CC[C@@H]3[C@H]([C@@H](O)C[C@]4(C)/C(=C/CO[C@H]5O[C@@H](C)[C@H](OC(C)=O)[C@@H](OC(C)=O)[C@H]5OC(C)=O)CC[C@@H]34)[C@@]2(C)C7)[C@@H]1OC(C)=O,EC50,[1],> 10 µg/mL
CC(=O)O[C@@H]1[C@@H](OC(C)=O)[C@H](C)O[C@H]2OC(C)(OC/C=C3\CC[C@H]4[C@@H]5CCC6=CC(=O)CC[C@]6(C)[C@H]5[C@@H](O)C[C@]34C)O[C@@H]21 (stereo partly specified),EC50,[1],9.5 µg/mL
C[C@@H]1O[C@@H](OC/C=C2\CC[C@H]3[C@@H]4CCC5=CC(=O)CC[C@]5(C)[C@H]4[C@@H](O)C[C@]23C)[C@H](O)[C@H](O)[C@H]1O,EC50,[1],> 100 µg/mL
C[C@@H]1O[C@H](OC/C=C2\CC[C@H]3[C@@H]4CC[C@H]5Cc6nc7c(nc6C[C@]5(C)[C@H]4[C@@H](O)C[C@]23C)C[C@@H]2CC[C@@H]3[C@H]([C@@H](O)C[C@]4(C)/C(=C/CO[C@H]5O[C@@H](C)[C@H](O)[C@@H](O)[C@H]5O)CC[C@@H]34)[C@@]2(C)C7)[C@H](O)[C@H](O)[C@H]1O,EC50,[1],> 10 µg/mL
same,GI50,[2],1.8 µg/mL
same,GI50,[3],1.8 µg/mL
same,GI50,[4],1.8 µg/mL
same,GI50,[5],1.8 µg/mL
same,GI50,[6],1.8 µg/mL
same,GI50,[7],2 µg/mL
CC(=O)OC/C=C1\CC[C@H]2[C@@H]3CC[C@H]4CC(=O)[C@H](N=[N+]=[N-])C[C@]4(C)[C@H]3[C@@H](O)C[C@]12C,EC50,[1],12 µg/mL
CC(=O)O[C@@H]1[C@@H](OC(C)=O)[C@H](C)O[C@H]2OC(C)(OC/C=C3\CC[C@H]4[C@@H]5CC[C@H]6Cc7nc8c(nc7C[C@]6(C)[C@H]5[C@@H](O)C[C@]34C)C[C@@H]3CC[C@@H]4[C@H]([C@@H](O)C[C@]5(C)/C(=C/COC6(C)O[C@@H]7O[C@@H](C)[C@H](OC(C)=O)[C@@H](OC(C)=O)[C@H]7O6)CC[C@@H]45)[C@@]3(C)C8)O[C@@H]21 (stereo partly specified),EC50,[1],> 10 µg/mL
C[C@@H]1O[C@H]2OC(C)(OC/C=C3\CC[C@H]4[C@@H]5CCC6=CC(=O)CC[C@]6(C)[C@H]5[C@@H](O)C[C@]34C)O[C@@H]2[C@H](O)[C@H]1O (stereo partly specified),EC50,[1],5.2 µg/mL
